Columns and labels:
[1] = Transformation of (+)-17 to (+)-16a in human liver S9 fraction at 3 uM after 60 mins
[2] = Transformation of (+)-17 to (+)-16a in rat liver S9 fraction at 3 uM after 60 mins
[3] = AUC (0 to infinity) in Sprague-Dawley rat at 10 mg/kg, po; type: ADME, organism-based; parameters: dose 10 mg/kg, route oral, time infinity; details: plasma
[4] = Tmax in Sprague-Dawley rat at 10 mg/kg, po; type: ADME, organism-based; parameters: dose 10 mg/kg, route oral; details: in vivo
[5] = Cmax in Sprague-Dawley rat at 10 mg/kg, po; type: ADME, organism-based; parameters: dose 10 mg/kg, route oral; details: in vivo
[6] = Transformation of (+)-17 to (+)-16a in monkey liver S9 fraction at 3 uM after 60 mins; details: rhesus monkey
[7] = Half life in Sprague-Dawley rat at 10 mg/kg, po; type: ADME, organism-based; parameters: dose 10 mg/kg, route oral; details: in vivo
[8] = target: Metabotropic glutamate receptor 2 (Homo sapiens, UniProt Q14416); assay: Displacement of [3H]-MGS0008 from mGluR2 expressed in CHO cells; type: cell-based
Sequence of Metabotropic glutamate receptor 2 (Q14416 whole entry): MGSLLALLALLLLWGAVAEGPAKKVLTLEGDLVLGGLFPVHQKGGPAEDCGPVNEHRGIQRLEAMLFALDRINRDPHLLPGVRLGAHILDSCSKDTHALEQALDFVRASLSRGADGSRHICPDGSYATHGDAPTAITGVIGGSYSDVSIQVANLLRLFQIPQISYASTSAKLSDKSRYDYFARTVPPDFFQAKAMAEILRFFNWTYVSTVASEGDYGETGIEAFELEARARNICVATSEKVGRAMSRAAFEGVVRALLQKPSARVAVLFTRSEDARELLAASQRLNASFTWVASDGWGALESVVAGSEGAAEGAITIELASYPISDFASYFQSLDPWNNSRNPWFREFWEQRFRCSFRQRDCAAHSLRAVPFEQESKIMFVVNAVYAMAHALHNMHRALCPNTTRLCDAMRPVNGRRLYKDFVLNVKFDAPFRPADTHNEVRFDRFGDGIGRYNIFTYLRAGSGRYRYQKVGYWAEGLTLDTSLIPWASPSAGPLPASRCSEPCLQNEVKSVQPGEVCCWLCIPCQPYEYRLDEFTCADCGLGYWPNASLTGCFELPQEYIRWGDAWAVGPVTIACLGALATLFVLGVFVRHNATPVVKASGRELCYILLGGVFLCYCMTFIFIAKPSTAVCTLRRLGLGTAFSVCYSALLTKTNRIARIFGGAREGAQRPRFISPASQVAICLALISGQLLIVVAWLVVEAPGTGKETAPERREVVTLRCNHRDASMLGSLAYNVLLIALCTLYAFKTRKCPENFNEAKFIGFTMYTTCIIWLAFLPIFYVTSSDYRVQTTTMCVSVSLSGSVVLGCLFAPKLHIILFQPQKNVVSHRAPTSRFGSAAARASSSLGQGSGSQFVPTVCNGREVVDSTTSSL

SMILES | AUC(0-inf) [3] | Tmax [4] | Cmax [5] | half-life [7] | IC50 [8] | also measured
CCCCCCCOC(=O)[C@@]1(F)C[C@@H]1[C@@](N)(CC1c2ccccc2Oc2ccccc21)C(=O)O | 78000 ng·h/mL | 2 h | 8640 ng/mL | 3.87 h |  | transformation ratio at 1 h, 3 µM [1]: 12.1%; transformation ratio at 1 h, 3 µM [2]: 68.1%; transformation ratio at 1 h, 3 µM [6]: 7.3%
N[C@](CC1c2ccccc2Oc2ccccc21)(C(=O)O)[C@H]1C[C@]1(F)C(=O)O | 3310 ng·h/mL | 2.67 h | 308 ng/mL | 5.05 h | 3.49 nM | 
N[C@](CC1c2ccccc2Oc2ccccc21)(C(=O)O)[C@H]1C[C@@H]1C(=O)O | 284 ng·h/mL |  |  |  |  | 
NC(CC1c2ccccc2Oc2ccccc21)(C(=O)O)C1CC1(F)C(=O)O (racemic; form 2) |  |  |  |  | 211 nM | 

Second part, led by results:

AUC(0-inf) [3] | Tmax [4] | Cmax [5] | half-life [7] | IC50 [8] | SMILES | also measured
 |  |  |  | 4.45 nM | NC(CC1c2ccccc2Oc2ccccc21)(C(=O)O)C1CC1(F)C(=O)O (racemic; form 1) | 
 |  |  |  | > 10000 nM | N[C@@](CC1c2ccccc2Oc2ccccc21)(C(=O)O)[C@@H]1C[C@@]1(F)C(=O)O | 
